# Data: US12503436B2, “Compounds and compositions for treating conditions associated with STING activity” (NOVARTIS PHARMA AG, priority 2021, dated 2025)
# Target: STING (Homo sapiens, UniProt Q86WV6, G230A/H232R/R293Q/R71H)
# Experiment: STING reporter assay in THP1-Dual KO-IFNAR2 cells (2′3′cGAMP stimulation, luciferase reporter)
# Assay type: cell-based
# Settings: 15 μM 2′3′cGAMP stimulation, 24 h, read-out: Pharmaron, THP1_IFNAR2 STING 24 h Luci Normalized: GeoMean EC50
# Procedure, shortened: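 THP1-Dual KO-IFNAR2 cells (2×10E6 cells/mL) with compounds at 0.0017-100 μM final, stimulated with 15 μM final 2′3′cGAMP delivered by Lipofectamine 2000; 24 h at 37 °C. Luciferase in supernatant read with QUANTI-Luc Plus; EC50 derived from luminescence.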
# Sequence of STING (Q86WV6 whole entry R71H/G230A/H232R/R293Q): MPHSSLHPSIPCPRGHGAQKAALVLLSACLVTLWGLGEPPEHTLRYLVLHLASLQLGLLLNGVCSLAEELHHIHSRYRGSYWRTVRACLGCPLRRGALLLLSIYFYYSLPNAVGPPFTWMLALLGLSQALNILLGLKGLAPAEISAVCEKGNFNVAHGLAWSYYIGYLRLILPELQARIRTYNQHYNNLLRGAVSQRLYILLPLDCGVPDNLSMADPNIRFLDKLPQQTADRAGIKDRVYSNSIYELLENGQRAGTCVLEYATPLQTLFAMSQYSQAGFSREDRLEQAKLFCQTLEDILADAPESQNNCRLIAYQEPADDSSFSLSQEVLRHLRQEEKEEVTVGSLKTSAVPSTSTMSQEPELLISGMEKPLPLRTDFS
row,EC50 [µM],Structure (SMILES)
1,0.2 to 1,"CC(=O)Nc1c[nH]c2ccc(OCC3CCc4ccc(C(F)(F)F)cc4C3)cc12 (centres unmarked) [Compound 437, N-(5-((7-(trifluoromethyl)-1,2,3,4-tetrahydronaphthalen-2-yl)methoxy)-1H-indol-3-yl)acetamide]"
2,0.04 to 0.2,"CC(=O)Nc1c[nH]c2ccc(CCOc3ccc(OC(F)(F)F)c(F)c3)cc12 [Compound 438, N-(5-{2-[3-fluoro-4-(trifluoromethoxy)phenoxy]ethyl}-1H-indol-3-yl)acetamide]"
3,5 to 100,"CC(=O)Nc1c[nH]c2ccc(CCOc3cncc(C(F)F)c3)cc12 [Compound 439, N-[5-(2-{[5-(difluoromethyl)pyridin-3-yl]oxy}ethyl)-1H-indol-3-yl]acetamide]"
4,1 to 5,"CC(=O)Nc1c[nH]c2ccc(CCOc3ccc(C(F)(F)F)cc3C#N)cc12 [Compound 440, N-(5-{2-[2-cyano-4-(trifluoromethyl)phenoxy]ethyl}-1H-indol-3-yl)acetamide]"
5,0.2 to 1,"CC(=O)Nc1c[nH]c2ccc(CCOc3ccc(Cl)cc3C(F)(F)F)cc12 [Compound 450, N-(5-{2-[4-chloro-2-(trifluoromethyl)phenoxy]ethyl}-1H-indol-3-yl)acetamide]"
6,0.04 to 0.2,"CC(=O)Nc1c[nH]c2ccc(CCOc3ccc(OCC(F)(F)F)cc3)cc12 [Compound 452, N-(5-{2-[4-(2,2,2-trifluoroethoxy)phenoxy]ethyl}-1H-indol-3-yl)acetamide]"
7,1 to 5,"CC(=O)Nc1c[nH]c2ccc(OCCC34CC(C3)C4)cc12 [Compound 458, N-(5-(2-(bicyclo[1.1.1]pentan-1-yl)ethoxy)-1H-indol-3-yl)acetamide]"
8,0.2 to 1,"COCCc1ccc(OCCc2ccc3[nH]cc(NC(C)=O)c3c2)cc1 [Compound 461, N-(5-{2-[4-(2-methoxyethyl)phenoxy]ethyl}-1H-indol-3-yl)acetamide]"
9,1 to 5,"CC(=O)Nc1c[nH]c2ccc(CCOc3ccc(C#N)cc3)cc12 [Compound 462, N-{5-[2-(4-cyanophenoxy)ethyl]-1H-indol-3-yl}acetamide]"
10,0.2 to 1,"CC(=O)Nc1c[nH]c2ccc(CCOc3ccc(OC(F)(F)F)nc3)cc12 [Compound 471, N-[5-(2-{[6-(trifluoromethoxy)pyridin-3-yl]oxy}ethyl)-1H-indol-3-yl]acetamide]"
11,1 to 5,"CC(=O)Nc1c[nH]c2ccc(OC3Cc4ccc(C(F)(F)F)cc4C3)cc12 (centres unmarked) [Compound 473, N-(5-((5-(trifluoromethyl)-2,3-dihydro-1H-inden-2-yl)oxy)-1H-indol-3-yl)acetamide]"
12,0.2 to 1,"CC(=O)Nc1c[nH]c2ccc(OCCC34CC(C(F)(F)F)(C3)C4)cc12 [Compound 474, N-(5-(2-(3-(trifluoromethyl)bicyclo[1.1.1]pentan-1-yl)ethoxy)-1H-indol-3-yl)acetamide]"
13,1 to 5,"CC(=O)Nc1c[nH]c2ccc(CCOc3cc(Cl)cc(C#N)c3)cc12 [Compound 476, N-{5-[2-(3-chloro-5-cyanophenoxy)ethyl]-1H-indol-3-yl}acetamide]"

# Second part, the molecule before the results:
row,Structure (SMILES),EC50 [µM]
1,"CC(=O)Nc1c[nH]c2ccc(CCOc3cccc(CC(F)(F)F)c3)cc12 [Compound 441, N-(5-{2-[3-(2,2,2-trifluoroethyl)phenoxy]ethyl}-1H-indol-3-yl)acetamide]",0.04 to 0.2
2,"CC(=O)Nc1c[nH]c2ccc(CCOc3ccc(CC(F)(F)F)cc3)cc12 [Compound 442, N-(5-{2-[4-(2,2,2-trifluoroethyl)phenoxy]ethyl}-1H-indol-3-yl)acetamide]",0.04 to 0.2
3,"CC(=O)Nc1c[nH]c2ccc(O[C@@H]3C[C@@H](c4ccc(C(F)(F)F)cc4)[C@H]3C)cc12 [Compound 443, N-(5-((1R,2R,3R)-2-methyl-3-(4-(trifluoromethyl)phenyl)cyclobutoxy)-1H-indol-3-yl)acetamide]",0.2 to 1
4,"CC(=O)Nc1c[nH]c2ccc(OCC3Cc4cnn(CC(F)(F)F)c4C3)cc12 (centres unmarked) [Compound 444, N-(5-((1-(2,2,2-trifluoroethyl)-1,4,5,6-tetrahydrocyclopenta[c]pyrazol-5-yl)methoxy)-1H-indol-3-yl)acetamide]",5 to 100
5,"C[C@]1(C(=O)Nc2c[nH]c3ccc(OCCc4ccc(C(F)(F)F)cc4)cc23)C[C@@H](O)C1 [Compound 445, (cis)-3-hydroxy-1-methyl-N-(5-(4-(trifluoromethyl)phenethoxy)-1H-indol-3-yl)cyclobutane-1-carboxamide]",0.04 to 0.2
6,"C[C@]1(C(=O)Nc2c[nH]c3ccc(OCCc4ccc(C(F)(F)F)cc4)cc23)C[C@H](O)C1 [Compound 446, trans-3-hydroxy-1-methyl-N-(5-(4-(trifluoromethyl)phenethoxy)-1H-indol-3-yl)cyclobutane-1-carboxamide]",0.04 to 0.2
7,"CC(=O)Nc1c[nH]c2ccc(OCC3Cc4cn(CC(F)(F)F)nc4C3)cc12 (centres unmarked) [Compound 447, N-(5-((2-(2,2,2-trifluoroethyl)-2,4,5,6-tetrahydrocyclopenta[c]pyrazol-5-yl)methoxy)-1H-indol-3-yl)acetamide]",5 to 100
8,"CC(=O)Nc1c[nH]c2ccc(O[C@@H]3C[C@@H](c4ccc(C(F)(F)F)cc4)[C@@H]3C)cc12 [Compound 448, N-(5-((1R,2S,3R)-2-methyl-3-(4-(trifluoromethyl)phenyl)cyclobutoxy)-1H-indol-3-yl)acetamide]",0.04 to 0.2
9,"CC(=O)Nc1c[nH]c2ccc(CCOc3ccc4ccncc4c3)cc12 [Compound 449, N-{5-[2-(isoquinolin-7-yloxy)ethyl]-1H-indol-3-yl}acetamide]",1 to 5
10,"CC(=O)Nc1c[nH]c2ccc(CCOc3ccc(-c4ccncc4)cc3)cc12 [Compound 451, N-(5-{2-[4-(pyridin-4-yl)phenoxy]ethyl} -1H-indol-3-yl)acetamide]",1 to 5
11,"CC(=O)Nc1c[nH]c2ccc(CCOc3cccc(CC#N)c3)cc12 [Compound 453, N-(5-{2-[3-(cyanomethyl)phenoxy]ethyl}-1H-indol-3-yl)acetamide]",1 to 5
12,"CC(=O)Nc1c[nH]c2ccc(O[C@H]3C[C@@H](c4ccc(C(F)(F)F)nc4)C3)cc12 [Compound 455, N-(5-(cis-3-(6-(trifluoromethyl)pyridin-3-yl)cyclobutoxy)-1H-indol-3-yl)acetamide]",0.2 to 1
13,"CC(=O)Nc1c[nH]c2ccc(CC[C@@H]3C[C@@H]4CN(CC(F)(F)F)C[C@@H]4C3)cc12 [Compound 457, N-(5-(2-((3aR,5r,6aS)-2-(2,2,2-trifluoroethyl)octahydrocyclopenta[c]pyrrol-5-yl)ethyl)-1H-indol-3-yl)acetamide]",0.2 to 1
14,"O=C(Nc1c[nH]c2ccc(O[C@H]3C[C@H](c4ccc(C(F)(F)F)cc4)C3)cc12)C1CNC1 [Compound 459, N-{5-[(1R, 3R)-3-[4-(trifluoromethyl)phenyl]cyclobutoxy]-1H-indol-3-yl}azetidine-3-carboxamide]",5 to 100
15,"CC1(C(=O)Nc2c[nH]c3ccc(O[C@H]4C[C@H](c5ccc(C(F)(F)F)cc5)C4)cc23)CCNCC1 [Compound 460, 4-methyl-N-{5-[(1R,3R)-3-[4-(trifluoromethyl)phenyl]cyclobutoxy]-1H-indol-3-yl}piperidine-4-carboxamide]",1 to 5
16,CC(=O)Nc1c[nH]c2ccc(CCOc3ccnc(C4CC4)c3)cc12 [Compound 463],5 to 100
17,"CC1(C(=O)Nc2c[nH]c3ccc(CCCc4ccc(C(F)(F)F)cn4)cc23)CC1 [Compound 464, 1-methyl-N-(5-(3-(5-(trifluoromethyl)pyridin-2-yl)propyl)-1H-indol-3-yl)cyclopropane-1-carboxamide]",0.2 to 1
18,"O=C(Nc1c[nH]c2ccc(O[C@H]3C[C@H](c4ccc(C(F)(F)F)nc4)C3)cc12)c1ccc(C(F)(F)F)cc1 [Compound 465, 4-(trifluoromethyl)-N-(5-(trans-3-(6-(trifluoromethyl)pyridin-3-yl)cyclobutoxy)-1H-indol-3-yl)benzamide]",0.2 to 1
19,"CC(C)(C)OC(=O)N1CC(C(=O)Nc2c[nH]c3ccc(O[C@H]4C[C@H](c5ccc(C(F)(F)F)cc5)C4)cc23)C1 [Compound 466, tert-butyl 3-((5-(trans-3-(4-(trifluoromethyl)phenyl)cyclobutoxy)-1H-indol-3-yl)carbamoyl)azetidine-1-carboxylate]",0.2 to 1
20,"N#CC1CCC1C(=O)Nc1c[nH]c2ccc(O[C@H]3C[C@H](c4ccc(C(F)(F)F)cc4)C3)cc12 (stereo partly drawn) [Compound 467, 2-cyano-N-{5-[(1R,3R)-3-[4-(trifluoromethyl)phenyl]cyclobutoxy]-1H-indol-3-yl}cyclobutane-1-carboxamide]",0.2 to 1
21,"COCC1(C(=O)Nc2c[nH]c3ccc(O[C@H]4C[C@H](c5ccc(C(F)(F)F)cc5)C4)cc23)CC1 [Compound 468, l-(methoxymethyl)-N-{5-[(1R,3R)-3-[4-(trifluoromethyl)phenyl]cyclobutoxy]-1H-indol-3-yl}cyclopropane-1-carboxamide]",0.2 to 1
22,"CC1(F)CC(C(=O)Nc2c[nH]c3ccc(O[C@H]4C[C@H](c5ccc(C(F)(F)F)cc5)C4)cc23)C1 (stereo partly drawn) [Compound 469, 3-fluoro-3-methyl-N-{5-[(1R,3R)-3-[4-(trifluoromethyl)phenyl]cyclobutoxy]-1H-indol-3-yl}cyclobutane-1-carboxamide]",0.2 to 1
23,"CC(=O)Nc1c[nH]c2ccc(CCOc3ccc(F)c(C(F)(F)F)c3)cc12 [Compound 470, N-(5-{2-[4-fluoro-3-(trifluoromethyl)phenoxy]ethyl}-1H-indol-3-yl)acetamide]",0.2 to 1
24,"CC(=O)Nc1c[nH]c2ccc(OCC3CCC(C(F)(F)F)CC3)cc12 (centres unmarked) [Compound 472, N-(5-((4-(trifluoromethyl)cyclohexyl)methoxy)-1H-indol-3-yl)acetamide]",0.2 to 1
25,"CC(=O)Nc1c[nH]c2ccc(CCOc3ccc(-c4csc(C)n4)cc3)cc12 [Compound 475, N-(5-{2-[4-(2-methyl-1,3-thiazol-4-yl)phenoxy]ethyl} -1H-indol-3-yl)acetamide]",1 to 5
